The assay concerns the target T1, Human GPR120 (Homo sapiens, UniProt Q5NUL3).
T1 construct: Ga16 (promiscuous G protein) fusion partner; expressed in transfected cells
T1 sequence (Q5NUL3 with tags, fused parts or gaps): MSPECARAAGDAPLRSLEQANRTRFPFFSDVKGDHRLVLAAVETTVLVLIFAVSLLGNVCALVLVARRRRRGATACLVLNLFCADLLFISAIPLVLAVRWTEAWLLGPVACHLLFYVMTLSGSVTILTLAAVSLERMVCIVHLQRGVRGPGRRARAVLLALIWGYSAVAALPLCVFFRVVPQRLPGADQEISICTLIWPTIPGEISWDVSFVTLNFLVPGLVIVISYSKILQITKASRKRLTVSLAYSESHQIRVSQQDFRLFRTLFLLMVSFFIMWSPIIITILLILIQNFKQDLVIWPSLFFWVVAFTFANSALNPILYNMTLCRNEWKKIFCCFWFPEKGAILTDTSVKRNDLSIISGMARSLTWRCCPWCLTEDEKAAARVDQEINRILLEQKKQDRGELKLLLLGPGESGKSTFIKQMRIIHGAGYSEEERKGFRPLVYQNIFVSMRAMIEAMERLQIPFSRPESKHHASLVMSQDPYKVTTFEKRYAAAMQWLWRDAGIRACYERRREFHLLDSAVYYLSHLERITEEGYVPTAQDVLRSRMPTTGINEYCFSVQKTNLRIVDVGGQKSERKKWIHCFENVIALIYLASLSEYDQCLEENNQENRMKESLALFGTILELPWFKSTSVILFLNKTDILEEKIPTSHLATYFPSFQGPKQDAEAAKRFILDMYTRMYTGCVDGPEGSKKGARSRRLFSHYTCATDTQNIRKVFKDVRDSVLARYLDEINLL
As to the kind of experiment: FLIPR assay: agonist-induced calcium mobilization in HEK293-GPR120-Ga16 cells. The class given is cell-based. The conditions noted are these: for EC50: GPR120 activation, calcium mobilization, HEK293-GPR120-Ga16 cells; for Emax: % enhancement of the test compound relative to a known compound, read-out: % Efficiency. As to the method:
Human GPR120 stable cell-line was generated in HEK293 cells. GPR120 (Accession number BC101175) is fused to a promiscuous G protein, Ga16. The expression plasmid is transfected into HEK293 cells using Fugene6 following manufacturer's instruction. Stable cell-lines are generated following drug selection.
FLIPR (Fluorimetric Imaging Plate Reader, Molecular Devices) assays are performed to measure agonist-induced calcium mobilization in the GPR120-expressing cells. One day before the FLIPR assay, HEK293-GPR120-Ga16 cells are seeded into poly-D-lysine coated black-wall-clear bottom 384 well plates (Falcon) at 25,000 cells per well in 40 μl DMEM supplemented with 1% of FBS. The cells are incubated overnight at 37° C. in a humidified incubator. The medium is aspirated on the day of the FLIPR assay. The cells are incubated with 50 μl/well of the assay buffer (HBSS, 20 mM HEPES, 2.5 mM probenecid, pH7.4) containing Fluo-4 NM dye (Invitrogen cat# F36205) at 37° C. for 45 minutes, and then equilibrated at room temperature for 30 minutes. Compounds are dissolved in DMSO and diluted to desired concentrations with assay buffer. Fluorescent output is measured immediately following compound addition (12.5 μl/well) on the FLIPR machine.
An EC50 value was calculated using the change of fluorescent intensity from the reaction initiation. […] In some examples, compounds provided herein have EC50 values from 0.1 μM to 5 μM, while in other examples from 0.5 μM to 5 μM.
The EC50 value in those experiments is given as that concentration of the test compound in question that provoke a response halfway between the baseline and maximum responses. In certain examples compounds of Formula (I) have EC50 values from 0.001 μM to 5 μM. In other examples, compounds of Formula (I) have EC50 values from 0.001 μM to 4 μM. In other examples, compounds of Formula (I) have EC50 values from 0.001 μM to 3 μM. In other examples, compounds of Formula (I) have EC50 values from 0.001 μM to 2 μM. In other examples, compounds of Formula (I) have EC50 values from 0.001 μM to 1 μM. In other examples, compounds of Formula (I) have EC50 values from 0.001 μM to 0.5 μM. […] In other examples, compounds of Formula (I) have EC50 values from 0.001 μM to 0.1 μM.
The % efficiency in those experiments is given as that % enhancement of the test compound in question relative to a known compound. In certain examples compounds of Formula (I) have a % efficiency values from 50% to 150%. In other examples, compounds of Formula (I) have a % efficiency values from 55% to 150%. In other examples, compounds of Formula (I) have a % efficiency values from 60% to 150%. In other examples, compounds of Formula (I) have a % efficiency values from 65% to 150%. In other examples, compounds of Formula (I) have a % efficiency values from 70% to 150%. In other examples, compounds of Formula (I) have a % efficiency values from 75% to 150%. In other examples, compounds of Formula (I) have a % efficiency values from 80% to 150%. In other examples, compounds of Formula (I) have a % efficiency values from 85% to 150%. In other examples, compounds of Formula (I) have a % efficiency values from 90% to 150%. In other examples, compounds of Formula (I) have a % efficiency values from 95% to 150%. In other examples, compounds of Formula (I) have a % efficiency values from 100% to 150%.
On the technique in general: A change in cytosolic calcium serves as a functional read-out for many receptors and channels.

Read-outs that look alike come from different tables or passages of the source.

What is called EC50 is the concentration needed to bring the measured effect to its halfway point. Regarding `CCn1c(-c2ccccc2)cs/c1=N\c1ccc(C(=O)O)c(F)c1` [Compound 14, (Z)-4-(3-ethyl-4-phenylthiazol-2(3H)-ylideneamino)-2-fluorobenzoic acid], the EC50 (read-out: EC50 Range) fell in the range of 100 to 250 nM.
Consider `CCn1c(-c2ccc3ccccc3c2)cs/c1=N\c1ccc(C(=O)O)cc1` [Compound 41, (Z)-4-(3-ethyl-4-(naphthalen-2-yl)thiazol-2(3H)-ylideneamino)benzoic acid], for which the EC50 (read-out: EC50 Range) was in the range of 250 to 500 nM.
`O=C(O)c1ccc(/N=c2\scc(-c3ccccc3)n2CC(F)(F)F)cc1` [Compound 24, (Z)-4-(4-phenyl-3-(2,2,2-trifluoroethyl)thiazol-2(3H)-ylideneamino)benzoic acid]: the Emax is 71.2%. In addition, where the note is “read-out: EC50”, the EC50 amounted to 184 nM. The 50% effective concentration (EC50) (read-out: EC50 Range) lay within 100 to 250 nM.
For the molecule `CCn1c(-c2ccccc2C(F)(F)F)cs/c1=N\c1ccc(C(=O)O)cc1` [Compound 11, (Z)-4-(3-ethyl-4-(2-(trifluoromethyl)phenyl)thiazol-2(3H)-ylideneamino)benzoic acid], under “read-out: EC50 Range”, the concentration giving a half-maximal response (EC50) was in the range of 100 to 250 nM.
Regarding `CCn1c(-c2ccccc2Br)cs/c1=N\c1ccc(C(=O)O)cc1` [Compound 42, (Z)-4-(4-(2-bromophenyl)-3-ethylthiazol-2(3H)-ylideneamino)benzoic acid], the EC50 (read-out: EC50 Range) lay in the range of 1 to 100 nM.
On the same count and under the same terms, with `CCc1ccc(-c2cn(-c3cc(C(=O)O)ccc3F)nn2)cc1` [Compound 70, 3-(4-(4-ethylphenyl)-1H-1,2,3-triazol-1-yl)-4-fluorobenzoic acid] the figure was 1000 to 5000 nM; with `CCc1ccc(-c2cn(-c3ccc(Cl)c(C(=O)O)c3)nn2)cc1` [Compound 68], greater than 5000 nM.
For the molecule `CCn1c(-c2cccc(O)c2)cs/c1=N\c1ccc(C(=O)O)cc1` [Compound 18, (Z)-4-(3-ethyl-4-(3-hydroxyphenyl)thiazol-2(3H)-ylideneamino)benzoic acid], for the setting “read-out: EC50 Range”, the half-maximal effective concentration (EC50) lay within 250 to 500 nM.
Still for that read-out and setting: with `CCn1c(-c2cccc(Cl)c2Cl)cs/c1=N\c1ccc(C(=O)O)cc1` [Compound 39, (Z)-4-(4-(2,3-dichlorophenyl)-3-ethylthiazol-2(3H)-ylideneamino)benzoic acid] the figure was 100 to 250 nM; with `COc1cccc(-c2noc(-c3cccc(C(=O)O)c3)n2)c1` [Compound 53, 3-(3-(3-methoxyphenyl)-1,2,4-oxadiazol-5-yl)benzoic acid], 500 to 1000 nM; with `CCn1c(-c2cccc(F)c2)cs/c1=N\c1ccc(S(=O)(=O)O)cc1` [Compound 4, (Z)-4-(3-ethyl-4-(3-fluorophenyl)thiazol-2(3H)-ylideneamino)benzenesulfonic acid], 250 to 500 nM.
In the case of `O=C(O)c1cccc(-n2cc(-c3ccc(Cl)cc3)nn2)c1` [Compound 59, 3-(4-(4-chlorophenyl)-1H-1,2,3-triazol-1-yl)benzoic acid], the EC50 (read-out: EC50 Range) is 1000 to 5000 nM.
For the molecule `CCc1ccc(-c2cn(-c3cc(F)cc(C(=O)O)c3)nn2)cc1` [Compound 66, 3-(4-(4-ethylphenyl)-1H-1,2,3-triazol-1-yl)-5-fluorobenzoic acid], under “read-out: EC50 Range”, the EC50 was 500 to 1000 nM.
Consider `CCn1c(-c2ccccc2Cl)cs/c1=N\c1ccc(C(=O)O)cc1` [Compound 34, (Z)-4-(4-(2-chlorophenyl)-3-ethylthiazol-2(3H)-ylideneamino)benzoic acid], for which the EC50 (read-out: EC50 Range) lay in the range of 100 to 250 nM.
On to `COc1ccc(-c2noc(-c3ccc(C(=O)O)cc3)n2)cc1` [Compound 52, 4-(3-(4-methoxyphenyl)-1,2,4-oxadiazol-5-yl)benzoic acid], for which, under “read-out: EC50 Range”, the EC50 was 1000 to 5000 nM.
As to `O=C(O)c1ccc(/N=c2\scc(-c3ccccc3)n2CC(F)F)cc1` [Compound 23, (Z)-4-(3-(2,2-difluoroethyl)-4-phenylthiazol-2(3H)-ylideneamino)benzoic acid], the EC50 (read-out: EC50 Range) fell in the range of 100 to 250 nM.
For the molecule `COc1ccc(-c2noc(-c3cccc(C(=O)O)c3)n2)cc1` [Compound 51, 3-[3-(4-Methoxyphenyl)-1,2,4-oxadiazol-5-yl]benzoic acid], the Emax was found to be 55%. Further, under “read-out: EC50”, the EC50 came out at 184 nM. Besides, the EC50 (read-out: EC50 Range) is 100 to 250 nM.
Consider `CCn1c(-c2ccccc2)cs/c1=N\c1ccc(C(=O)O)c(F)c1F` [Compound 10, (Z)-4-(3-ethyl-4-phenylthiazol-2(3H)-ylideneamino)-2,3-difluorobenzoic acid], for which the Emax was 86.2%. The concentration for a half-maximal effect (EC50) (read-out: EC50) came to 485 nM. Moreover, for the setting “read-out: EC50 Range”, the EC50 fell in the range of 250 to 500 nM.
Take `CCc1ccc(-c2cn(-c3cc(OC)cc(C(=O)O)c3)nn2)cc1` [Compound 65, 3-(4-(4-ethylphenyl)-1H-1,2,3-triazol-1-yl)-5-methoxybenzoic acid]: the EC50 (read-out: EC50 Range) lay in the range of 1000 to 5000 nM.
As for `CCn1c(-c2ccccc2Oc2ccccc2)cs/c1=N\c1ccc(C(=O)O)cc1` [Compound 8, (Z)-4-(3-ethyl-4-(2-phenoxyphenyl)thiazol-2(3H)-ylideneamino)benzoic acid], the Emax turned out to be 88.1%. For the same molecule, the EC50 (read-out: EC50) was determined as 780 nM. For the same molecule, the EC50 (read-out: EC50 Range) fell in the range of 500 to 1000 nM.
Turning to `CC(C)c1ccc(-n2cc(-c3cccc(C(=O)O)c3)nn2)cc1` [Compound 64, 3-(1-(4-isopropylphenyl)-1H-1,2,3-triazol-4-yl)benzoic acid], the Emax worked out at 69%. Moreover, the EC50 (read-out: EC50) amounted to 878 nM. Also, the EC50 (read-out: EC50 Range) fell in the range of 500 to 1000 nM.
As for `CCn1c(-c2ccccc2[N+](=O)[O-])cs/c1=N\c1ccc(C(=O)O)cc1` [Compound 44, (Z)-4-(3-ethyl-4-(2-nitrophenyl)thiazol-2(3H)-ylideneamino)benzoic acid], the Emax is 75.2%. The EC50 (read-out: EC50) is 604 nM. The EC50 (read-out: EC50 Range) was 500 to 1000 nM.
For the molecule `CCn1c(-c2cccc(Br)c2)cs/c1=N\c1ccc(S(=O)(=O)O)cc1` [Compound 5, (Z)-4-(4-(3-bromophenyl)-3-ethylthiazol-2(3H)-ylideneamino)benzenesulfonic acid], the EC50 (read-out: EC50 Range) is 100 to 250 nM.
Same read-out and setting: with `CCn1c(-c2cccc(OC(F)(F)F)c2)cs/c1=N\c1ccc(C(=O)O)cc1` [Compound 13, (Z)-4-(3-ethyl-4-(3-(trifluoromethoxy)phenyl)thiazol-2(3H)-ylideneamino)benzoic acid] the figure was 500 to 1000 nM.
As for `CCn1c(-c2ccccc2)cs/c1=N\c1ccc(C(=O)O)cc1` [Compound 36, (Z)-4-(3-ethyl-4-phenylthiazol-2(3H)-ylideneamino)benzoic acid], the EC50 (read-out: EC50 Range) lay in the range of 250 to 500 nM.
As to `CCn1c(-c2ccccc2N)cs/c1=N\c1ccc(C(=O)O)cc1` [Compound 43, (Z)-4-(4-(2-aminophenyl)-3-ethylthiazol-2(3H)-ylideneamino)benzoic acid], for the setting “read-out: EC50 Range”, the EC50 was 1 to 100 nM.

The record behind these values is patent US8362050B2, “Compounds and methods for modulating G protein-coupled receptors” (IRM LLC, priority 2008, dated 2013).
